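Test compounds were applied to cells in 96-well plates for 48 hours at 5 doses. TGI is the concentration that stops growth completely.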

Assay in all cases: growth of human tumour cells (NCI), 48 h
Experiment [1] deals with HCC-2998 colon.
For experiment [2], the system named is HS 578T breast.
In experiment [3] the test system is HT29 colon.
The subject of experiment [4] is MDA-MB-231 breast.
In experiment [5] the test system is PC-3 prostate.
The subject of experiment [6] is SF-268 CNS.
The subject of experiment [7] is SK-MEL-5 melanoma.
In experiment [8] the test system is SNB-75 CNS.
In experiment [9] the test system is TK-10 renal.
Experiment [10] has as its system U251 CNS.

On to `O=C(O)/C=C/C(=O)N1Cc2cc3ccccc3nc2C1`, for which the TGI in experiment [1], in experiment [2], in [3], in experiment [4], in [5] and in experiment [6] was above 100 µM throughout. The TGI in experiment [7], in experiment [8], in experiment [9] and in experiment [10] was above 100 µM throughout.
Regarding `C=C1CC2CCCC12C=O` (stereo not given), the TGI in experiment [1], in experiment [2], in [3], in experiment [4], in experiment [5] and in experiment [6] was above 10 µM in each case. Further, the TGI in experiment [7], in experiment [8], in [9] and in [10] was above 10 µM throughout.
